In the NIST ThermoML archive (doi:10.1021/je030132i):

Test: xn = mol fraction of the nth substance listed
Conditions: 101.3 kPa, Liquid; for viscosity: Capillary tube (Ostwald / Ubbelohde) method; for mass density: Vibrating tube method

CC(O)CNCC(C)O (configuration not stated) [N-(2-hydroxypropyl)-2-hydroxy-1-propanamine] + O
Conditions	mass density [kg/m3]	viscosity [mPa·s]
298.15 K, x1 = 0.02	1005.22	1.645
298.15 K, x1 = 0.0498	1015.93	3.723
298.15 K, x1 = 0.0701	1021.72	6.06
298.15 K, x1 = 0.1001	1027.13	11.55
298.15 K, x1 = 0.1999	1030.9	55.69
298.15 K, x1 = 0.3006	1027.13	166.1
298.15 K, x1 = 0.3963	1022.42	338.7
298.15 K, x1 = 0.5012	1017.79	613
298.15 K, x1 = 0.5957	1014.09	861
298.15 K, x1 = 0.7034	1010.66	1142
298.15 K, x1 = 0.8029	1008.07	1326
298.15 K, x1 = 0.9016	1006.28	1478
313.15 K, x1 = 0.02	999.64	1.112
313.15 K, x1 = 0.0498	1008.66	2.218
313.15 K, x1 = 0.0701	1013.2	3.335
313.15 K, x1 = 0.1001	1017.4	5.56
313.15 K, x1 = 0.1999	1019.77	20.63
313.15 K, x1 = 0.3006	1016.15	46.9
313.15 K, x1 = 0.3963	1011.45	87.7
313.15 K, x1 = 0.5012	1006.84	139.1
313.15 K, x1 = 0.5957	1003.2	184.6
313.15 K, x1 = 0.7034	999.62	229.9
313.15 K, x1 = 0.8029	997.1	264.6
313.15 K, x1 = 0.9016	995.03	290.7
318.65 K, x1 = 0.02	997.52	0.992
318.65 K, x1 = 0.0498	1006.43	1.914
318.65 K, x1 = 0.0701	1010.34	2.776
318.65 K, x1 = 0.1001	1014	4.6
318.65 K, x1 = 0.1999	1015.54	15.21
318.65 K, x1 = 0.3006	1011.9	32.42
318.65 K, x1 = 0.3963	1007.24	58.7
318.65 K, x1 = 0.5012	1002.82	88.1
318.65 K, x1 = 0.5957	999.15	114.5
318.65 K, x1 = 0.7034	995.55	140
318.65 K, x1 = 0.8029	993.04	159.5
318.65 K, x1 = 0.9016	990.99	174.2
318.65 K, x1 = 1	988.22	186.6
323.15 K, x1 = 0.02	995.02	0.907
323.15 K, x1 = 0.0498	1003.09	1.684
323.15 K, x1 = 0.0701	1006.95	2.408
323.15 K, x1 = 0.1001	1010.46	3.78
323.15 K, x1 = 0.1999	1012.04	12.06
323.15 K, x1 = 0.3006	1008.24	24.56
323.15 K, x1 = 0.3963	1003.75	42.8
323.15 K, x1 = 0.5012	999.39	63.37
323.15 K, x1 = 0.5957	995.71	79.93
323.15 K, x1 = 0.7034	992.23	96.22
323.15 K, x1 = 0.8029	989.58	108.7
323.15 K, x1 = 0.9016	987.51	118
323.15 K, x1 = 1	984.9	125.7
333.15 K, x1 = 0.02	989.76	0.733
333.15 K, x1 = 0.0498	996.93	1.355
333.15 K, x1 = 0.0701	1000.34	1.816
333.15 K, x1 = 0.1001	1003.16	2.719
333.15 K, x1 = 0.1999	1004.03	7.5
333.15 K, x1 = 0.3006	1000.17	14.15
333.15 K, x1 = 0.3963	995.77	22.89
333.15 K, x1 = 0.5012	991.52	32.12
333.15 K, x1 = 0.5957	987.88	39.31
333.15 K, x1 = 0.7034	984.45	46.32
333.15 K, x1 = 0.8029	981.79	51.38
333.15 K, x1 = 0.9016	979.72	55.03
333.15 K, x1 = 1	977.3	57.99
343.15 K, x1 = 0.02	983.93	0.621
343.15 K, x1 = 0.0498	990.37	1.061
343.15 K, x1 = 0.0701	993.22	1.412
343.15 K, x1 = 0.1001	995.55	2.042
343.15 K, x1 = 0.1999	995.78	5.05
343.15 K, x1 = 0.3006	991.86	8.7
343.15 K, x1 = 0.3963	987.44	13.34
343.15 K, x1 = 0.5012	983.33	17.88
343.15 K, x1 = 0.5957	979.75	21.19
343.15 K, x1 = 0.7034	976.35	24.42
343.15 K, x1 = 0.8029	973.95	26.64
343.15 K, x1 = 0.9016	971.72	28.29
343.15 K, x1 = 1	969.58	29.55
